Values of other authors as cited in patent publication US20060251623A1, “Packaged virus-like particles” (priority 2003, published 2006).

Experiments:
[1] = tested on: VLP-induced CTL responses; conditions: TLR ligand alone compared with CpGs; Schwarz et al., (2003) Eur. J. Immunol., 33, 1465-1470
blood cells = conditions: Kuramoto E. et al., Japanese Journal Cancer Research 83, 1128-1131 (1992)

Molecule	Enhancement of VLP-induced CTL responses [1]	Stimulation of blood cells in vitro (blood cells)
flagellin	failed to enhance VLP-induced CTL responses in a way similar to CpGs	–
GGGGGGGGGGGACGATCGTCGGGGGGGGGG [SEQ ID NO: 54]	–	able to stimulate blood cells in vitro
polyinosinic-polycytidylic acid [poly (I:C)]	failed to enhance VLP-induced CTL responses in a way similar to CpGs	–
CC(C)Cn1cnc2c(N)nc3ccccc3c21 [imiquimode]	failed to enhance VLP-induced CTL responses in a way similar to CpGs	–
